Laboratory results reported in ChEMBL document CHEMBL1149689, “Pomiferin, histone deacetylase inhibitor isolated from the fruits of Maclura pomifera” (Bioorg Med Chem Lett, 2007).

How the values were obtained:
LOX IMVI = experiment: cells; format: functional; settings: Homo sapiens, 21 h
Description: Growth inhibition of human LOX-IMVI cells after 21 hrs by MTT assay

in vitro = settings: human, hepatocytes
Description: Growth inhibition of human hepatocytes after 21 hrs by MTT assay

PC-3 = experiment: cells; format: functional; settings: Homo sapiens, PC-3, 21 h
Description: Growth inhibition of human PC3 cells after 21 hrs by MTT assay

NCI-H23 = experiment: cells; format: functional; settings: Homo sapiens, NCI-H23, 21 h
Description: Growth inhibition of human NCI-H23 cells after 21 hrs by MTT assay

HCT-15 = experiment: cells; format: functional; settings: Homo sapiens, HCT-15, 21 h
Description: Growth inhibition of human HCT15 cells after 21 hrs by MTT assay

ACHN = experiment: cells; format: functional; settings: Homo sapiens, 21 h
Description: Growth inhibition of human ACHN cells after 21 hrs by MTT assay

Histone deacetylase = experiment: Inhibition of HDAC in HeLa cells; format: cell-based, Homo sapiens
MDA-MB-231 = experiment: cells; format: functional; settings: Homo sapiens, MDA-MB-231, 21 h
Description: Growth inhibition of human MDA-MB-231 cells after 21 hrs by MTT assay

| SMILES | GI50 (LOX IMVI) [µM] | GI50 at 21 h (in vitro) [µM] | GI50 (PC-3) [µM] | GI50 (NCI-H23) [µM] | GI50 (HCT-15) [µM] | GI50 (ACHN) [µM] | IC50 (Histone deacetylase) [µM] | GI50 (MDA-MB-231) [µM] |
| --- | --- | --- | --- | --- | --- | --- | --- | --- |
| CC(C)=CCc1c2c(c3occ(-c4ccc(O)cc4)c(=O)c3c1O)C=CC(C)(C)O2 [OSAJIN] | 11 | > 500 | 12.3 | 12 | 9.65 | 12.1 | 6.53 | 11.3 |
| CC(C)=CCc1c2c(c3occ(-c4ccc(O)c(O)c4)c(=O)c3c1O)C=CC(C)(C)O2 [POMIFERIN] | 3.34 | 123 | 3.95 | 5.14 | 1.32 | 3.18 | 1.05 | 2.92 |
